{"source": "patent US6071896A", "about": "“Suppression of thromboxane levels by percutaneous administration of aspirin” (Gundersen Clinic, Ltd., priority 1998, dated 2000)", "key": {"[1]": {"system": "PGI2 formation in response to intravenous bradykinin", "test": "Urinary PGI-M excretion at rest and after bradykinin infusion, Example 3", "assay_type": "in vivo, human", "conditions": "4 subjects; intravenous 100-800 ng/kg/min", "description": "In an additional 4 subjects, we examined the increase in PGI2 formation in response to intravenous bradykinin prior to and following oral aspirin 75 mg or dermal aspirin 750 mg daily for 14 days. The protocol for bradykinin has been described previously [Clark, N.Engl.J.Med 325:1137 (1991)]. Volunteers were admitted after an overnight fast to the Clinical Research Center. Blood samples were obtained for serum TXB2 and the subject asked to void. Through a peripheral vein, 1 liter of normal saline was infused over 1 hour. After a further hour, bradykinin was infused in incremental doses of 100-800 ng/kg/min, each over 15 mm. The infusion was continued at the maximum tolerated dose for a total period of 2 hr. Blood pressure and heart rate were monitored continuously. Urine was collected in separate 2 hr aliquots prior to, during and following the bradykinin infusion.\n^1 The excretion of TXM and PGIM before and following dermal aspirin\n750 mg/day or oral aspirin 75 mg/day for 10 days. Urine samples were\ncollected over 2 hr before (rest) and following the administration of […]"}, "[2]": {"system": "PGI2 formation in response to intravenous bradykinin", "conditions": "on average; cited from earlier work"}}, "note": "Ends that are not written are not given here."}
{"sequence": "RPPGFSPFR [bradykinin]", "values": [{"measurement": "Increase in PGI-M excretion induced by bradykinin", "setting": "[1]", "result": "5.1±6", "unit": "fold"}, {"measurement": "Increase in PGI2 biosynthesis by bradykinin, previous studies", "setting": "[2]", "result": "2-6 fold"}]}
